Laboratory results from patent publication US9018188B2, “MicroRNA inhibitors” (Ottawa Hospital Research Institute, priority 2011, dated 2015).

Columns and labels:
Assay type in all cases: in vivo, mouse
Ucp3 = experiment: Immunoblot of Ucp3 in TA muscle after ASO injection; settings: TA muscles
From the text: (§1) To investigate miR-133 function in brown adipose determination of satellite cells in vivo, Applicant synthesized miR-133 antagomiR (miR-133 antisense oligonucleotide (ASO)) with an antisense sequence to both miR-133a and miR-133b, as well as a control “antagomiR” (control ASO) with the same chemical modifications and not antisense to any mouse gene or EST sequence (see Experimental Procedures). Applicant performed lineage tracing to distinguish effects of miR-133 ASO on satellite cells versus other cell types. Six week old Pax7-CreER; R26R-tdTomato mice were treated with tamoxifin as before (5 consecutive daily injections), then aged to 10 weeks of age prior to initiating the experiment. Control ASO versus miR-133 ASO were injected into tibialis anterior (TA) muscles 3 days following saline injection (quiescent state) or cardiotoxin injection (to induce activation). After one month, RT-qPCR was performed using RNA isolated from several tissues to evaluate the efficacy and scope of miR-133 ASO administration.
To induce brown adipocytes in vivo, 10 mg/mL Cardiotoxin solution (50 μl) was intramuscularly injected into TA muscles of 10-week old Pax7-CreER/R26R-tdTomato mice (FIG. 4) or C57BL/6 mice (FIG. 5 and FIG. 6). Alternatively, frozen injury was performed by applying liquid nitrogen cooled tweezers tips directly onto the anterior sides of TA muscles. […]

Ucp1 = experiment: Induction of Ucp1 and brown adipocytes in TA muscle (RT-qPCR, immunoblot, immunofluorescence, IHC)
From the text: as §1
To investigate whether miR-133 ASO was inducing satellite cells to undergo brown adipose determination in vivo, Applicant performed immunofluorescence microscopy on cross-sections prepared from regenerating TA muscles treated with control- or miR-133 ASO (FIG. 4C-D) Staining for Ucp1 and basal lamina-located Laminin confirmed Ucp1 staining only within miR-133 ASO treated regenerating muscles. […] In addition, Applicant observed that these interstitial cells were immunoreactive to Perilipin A, a marker for differentiated adipocytes, and nuclear Prdm16 (FIG. 4D).
To induce brown adipocytes in vivo, 10 mg/mL Cardiotoxin solution (50 μl) was intramuscularly injected into TA muscles of 10-week old Pax7-CreER/R26R-tdTomato mice (FIG. 4) or C57BL/6 mice (FIG. 5 and FIG. 6). Alternatively, frozen injury was performed by applying liquid nitrogen cooled tweezers tips directly onto the anterior sides of TA muscles. After 3 days, 20 μg of miR-133 antagomiR or control antagomiR in saline (50 μl) was intramuscularly injected into the same injured TA muscles (on right hindlimbs). To test efficacy of miR-133 ASO in intact muscles, saline, instead of Cardiotoxin, was injected to TA muscles before miR-133 ASO administration (FIGS. 4A, 4B). miR-133 antagomiR and scramble antagomiR were designed as previously described (Krutzfeldt et al., 2005).
The following antibodies and dilutions were used: anti-MyHC antibody (MF20, Developmental Studies Hybridoma Bank), 1:20 dilution; anti-Prdm16 antibody (generated in Dr. Patrick Seale's laboratory), 1:1,000 dilution; anti-Perilipin A antibody (Vala Sciences), 1:500 dilution; anti-Ucp1 antibody (Calbiochem), 1:200 dilution; anti-Laminin B2 antibody (Upstate), 1:500 dilution.
The following antibodies and dilutions were used: anti-Prdm16 antibody (generated in Dr. Patrick Seale's laboratory), 1:5,000 dilution; anti-Perilipin A antibody (Vala Sciences), 1:5,000 dilution; anti-Ucp1 antibody (Ab10983, Abeam), 1:1,000 dilution (FIGS. 4B, 5A, 7A); anti-Ucp1 antibody (Calbiochem), 1:1,000 dilution (FIG. 8C); anti-Ucp3 antibody (Ab3477, Abeam), 1:1,000 dilution; anti-Pgc1α antibody (Abeam), 1:1,000 dilution; anti-pan myosin heavy chain (MyHC) antibody (Developmental Studies Hybridoma Bank), 1:500; anti-DsRed (tdTomato) antibody (Ablab), 1:500; anti-α-Tubulin antibody (Sigma-Aldrich), 1:10,000 dilution.
Paraffin embedded tissue sections of TA muscles, inguinal white fat depots (igWAT) and epididymal white fat depots (epiWAT) were deparaffinized in CitriSolv. After rehydration, tissue sections were boiled in 0.01M citrate buffer (1.8 mM citric acid, 8.2 mM sodium citrate, pH 6.0) for 16 minutes. Endogenous peroxidase activity was neutralized by 0.3% H2O2 in 70% methanol Anti-Ucp1 antibody (Calbiochem) was 1:200 diluted and incubated with tissues sections overnight. IHC signals were developed by Vectastain ABC kit. […]

Fndc5 = experiment: qRT-PCR of Fndc5 in ASO treated muscles; settings: both RD and HFD conditions
Description: Normalized UCP1 levels were calculated based on the densitometry analysis of the UCP1 immunoblot and the α-Tubulin immunoblot. The interscapular brown adipose tissue (iBAT) were included as a control. Asterisk denotes the loading of the iBAT lanes on the UCP1 immunoblot was 1/100 of other lanes to avoid overloading. (B) Immunohistochemistry (IHC) of UCP1 protein reveal miR-133 antagonism induced beige adipocytes within inguinal and epididymal white adipose tissues. […] Error bars: S.E.M., asterisk: significant pair-wise comparison by t-test, *: p≦0.05, **: p≦0.01, ***: p≦0.001.
Total RNA was extracted from cells by TRIzol or Arcturus® PicoPure® RNA Isolation Kit (Applied Biosystems) following manufactures' recommendations. For RT-qPCR of mRNAs, total RNAs were reverse transcribed into cDNAs by SuperScript III (Invitrogen) and a mixture of oligodT18-20 primers and random hexamers. microRNA RT-qPCRs were performed as previously described (Shi and Chiang, 2005).

[1] = regenerating TA muscle cross-sections

*mA*mUmAmGmCmUmGmGmUmUmGmAmAmGmGmGmGmAmC*mC*mA*mA*mAChl [miR-133 ASO]
Ucp3 protein by immunoblotting (Ucp3): largely unaffected
repression of miR-133a/b and induction of Ucp1 mRNA, duration (Ucp1; 3 months after a single injection in regenerating muscle): long-lasting effects
Ucp1 protein expression in treated muscles by immunoblotting (Ucp1; C57BL/6 mice, regular diet or high fat diet, 2 months after treatment): ectopically induced
Ucp1 mRNA within injected regenerating muscle (Ucp1; cardiotoxin-injured TA muscle, one month): increased
Ucp1 mRNA level in treated TA muscle (Ucp1; frozen injury induced muscle regeneration): similarly induced
Ucp1 protein by immunoblotting (Ucp1; regenerated TA muscles, Pax7-CreER, R26R-tdTomato mice): specifically detected
numbers of interstitial cells and ORO-stained cells between regenerating myofibers (Ucp1; regenerating TA muscle): markedly increased
Prdm16pos cells per cross-section (average) (Ucp1; [1]): 31.6 per cross-section
Ucp1pos brown adipocytes per section (average) (Ucp1; [1]): 15.6 per section
share of Prdm16pos cells derived from satellite cells (Ucp1; tdTomato lineage tracing): 76.8%
share of Ucp1pos brown adipocytes derived from satellite cells (Ucp1; tdTomato lineage tracing): 83.3%
expression of Fndc5 compared to control muscles (Fndc5): increased
